The record followed here is patent US20250049776A1, “AUTOPHAGY INDUCING COMPOUNDS AND USES THEREOF, IN PARTICULAR FOR A SYSTEMIC TREATMENT OF DISEASES AND CONDITIONS” (Samsara Therapeutics Inc., priority 2021, published 2025).

The subject of this assay is Human osteosarcoma U20S cells. Briefly: Assay to measure lysosome and autolysosome formation (acidic vesicle formation, LysoView/LysoTracker staining). In kind it is cell-based. The conditions noted are these: for activation at 0.8 µM: Homo sapiens; for increase in acidic vesicle formation: U20S cells, relative to DMSO-treated control (10 μM). As to the method:
Lysosomes play a fundamental role in the autophagic pathway by fusing with autophagosomes and creating ‘autolysosomes’ in order to digest their contents. Stimulation of lysosome and autolysosome formation by a compound is indicative of a stimulation of autophagy. The ability of compounds to stimulate lysosome and autolysosome formation, and thus autophagy, in live cells was assessed via fluorescent microscopy using various fluorescent stains for labelling and tracking acidic organelles (including lysosomes and autolysosomes) such as: LysoView™ 650 (70059 and 70059-T, Biotium), LysoViewTM633 (70058 and 70058-T, Biotium) and LysoTracker™ Deep Red (L12492, ThermoFisher Scientific). The cellular phenotype was quantitatively assessed for the induction of acidic vesicle formation and compared to a non-treated control, thus providing a measure of the ability of the compound under investigation to stimulate autophagy.
Representative procedure using LysoView™633 dye or LysoTracker™ Deep Red dye: Human osteosarcoma U20S cells (40,000 cells/well) were seeded in a 24 well glass bottom plate (Sensoplate, Greiner Bio-One) and were incubated overnight in a humidified atmosphere at 37° C. and 5% CO2. Cells were grown in DMEM (Gibco) supplemented with 10% Fetal Bovine Serum (FBS) and 100 units/ml penicillin and 100 μg/ml streptomycin (Invitrogen). After the attachment period, cells were treated with different compounds of interest (at various concentrations in DMSO) or DMSO (non-treated control) in cell culture medium and were incubated for 24 hours. Compound-containing medium was removed and cells were incubated with pre-warmed cell culture medium containing 1× LysoView™ 633 (70058 and 70058-T, Biotium) or 50 nM LysoTracker™ Deep Red (L12492, ThermoFisher Scientific) for 45 minutes at 37° C. Finally, cell nuclei were stained for 10 minutes using Hoechst 33342 (1 μg/mL) and then the medium was replaced with fresh medium. The 24 well plate was then fitted into a heated stage on the microscope and cells maintained at 37° C. Images were captured using appropriate filter set for Cy5 and DAPI detection with the EVOS M7000 Microscope (ThermoFisher Scientific). The cellular phenotype was visually assessed for the induction of acidic vesicle formation relative to the non-treated control; multiple images were acquired and analyzed using ImageJ or Cell Profiler.

Setting [1] is: U2OS cells, concentration of 0.8 μM, read-out: Activity (percentage increase in acidic vesicle formation over the DMSO-treated control), Table 2.
[2] abbreviates: U2OS cells, concentration of 0.8 μM, read-out: Activity (percentage increase in acidic vesicle formation), Table 2a Preferred compounds.

Counter-ions that a name gives are not always drawn. Like-named read-outs stand apart in the source and are kept apart here.

As to `CCCN(C(=O)c1ccc(-c2cnn(-c3ccccc3)c2)o1)[C@@H]1CCNC1` [Compound 99, 5-(1-phenyl-1H-pyrazol-4-yl)-N-propyl-N-[(3R)-pyrrolidin-3-yl]furan-2-carboxamide], the activation at 0.8 µM is, setting by setting: under setting [1], 50 to 100%; under setting [2], 50 to 100%. Consider `O=C(NC1C[C@@H]2C[C@H]1CN2)c1csc(-c2cnn(-c3ccccc3)c2)n1` (stereo partly drawn) [Compound 327, N-[(1S,4S)-2-azabicyclo[2.2.1]heptan-5-yl]-2-(1-phenyl-1H-pyrazol-4-yl)-1,3-thiazole-4-carboxamide], for which, under setting [1], the activation at 0.8 µM is 30 to 50%.

`O=C(NC1CNC1)c1csc(-c2cnn(-c3ccccc3)c2)n1` [Compound 180, N-(azetidin-3-yl)-2-(1-phenyl-1H-pyrazol-4-yl)-1,3-thiazole-4-carboxamide]: the activation at 0.8 µM under setting [1] was 30 to 50%.

Consider `CC(C)N(C(=O)c1csc(-c2cnn(-c3cccnc3)c2)n1)C1CCNCC1` [Compound 321, N-(piperidin-4-yl)-N-(propan-2-yl)-2-[1-(pyridin-3-yl)-1H-pyrazol-4-yl]-1,3-thiazole-4-carboxamide], for which the “increase in acidic vesicle formation” value is recorded as “only a slight increase”. Under setting [1], the activation at 0.8 µM was in the range of 30 to 50%. Regarding `CCCN(C(=O)c1ccc(-c2cnn(-c3ccccc3)c2)o1)C1CCNC1` (centres unmarked) [Compound 140, 5-(1-phenyl-1H-pyrazol-4-yl)-N-propyl-N-(pyrrolidin-3-yl)furan-2-carboxamide], the activation at 0.8 µM under setting [1] was in the range of 10 to 30%. Still for that read-out and setting: in the case of `CCCN(C(=O)c1csc(-c2cnn(-c3ccc(OC(F)(F)F)cc3)c2)n1)[C@@H]1CCNC1` [Compound 46, N-propyl-N-[(3R)-pyrrolidin-3-yl]-2-{1-[4-(trifluoromethoxy)phenyl]-1H-pyrazol-4-yl}-1,3-thiazole-4-carboxamide] it was 30 to 50%; in that of `CCCN(C(=O)c1csc(-c2cnn(-c3ccccc3C(F)(F)F)c2)n1)[C@@H]1CCNC1` [Compound 83, N-propyl-N-[(3R)-pyrrolidin-3-yl]-2-{1-[2-(trifluoromethyl)phenyl]-1H-pyrazol-4-yl}-1,3-thiazole-4-carboxamide], 30 to 50%; in that of `NCCCCCNC(=O)c1cc(-c2cnn(-c3ccccc3)c2)cs1` [Compound 17, N-(5-aminopentyl)-4-(1-phenyl-1H-pyrazol-4-yl)thiophene-2-carboxamide], 10 to 30%. Take `CCCN(C(=O)c1csc(-c2cnn(-c3ccccc3)c2)n1)[C@H]1CCNC1` [Compound 170, (S)-2-(1-phenyl-1H-pyrazol-4-yl)-N-propyl-N-(pyrrolidin-3-yl)thiazole-4-carboxamide hydrochloride]: the activation at 0.8 µM under setting [1] was in the range of 10 to 30%. The same measure, in the same setting: in the case of `NCCOCCNC(=O)c1ccc(-c2cnn(-c3ccccc3)c2)o1` [Compound 101, N-[2-(2-aminoethoxy)ethyl]-5-(1-phenyl-1H-pyrazol-4-yl)furan-2-carboxamide] it was 30 to 50%. Take `CCCN(C(=O)c1csc(-c2cnn(-c3cccc(OC(F)(F)F)c3)c2)n1)[C@@H]1CCNC1` [Compound 26, N-propyl-N-[(3R)-pyrrolidin-3-yl]-2-{1-[3-(trifluoromethoxy)phenyl]-1H-pyrazol-4-yl}-1,3-thiazole-4-carboxamide]: the activation at 0.8 µM under setting [1] was in the range of 30 to 50%.

On to `CC(C)N(C(=O)c1csc(-c2cnn(-c3ccccc3F)c2)n1)C1CCNCC1` [Compound 95, 2-[1-(2-fluorophenyl)-1H-pyrazol-4-yl]-N-(piperidin-4-yl)-N-(propan-2-yl)-1,3-thiazole-4-carboxamide], for which the activation at 0.8 µM runs as follows: under setting [1], 50 to 100%; under setting [2], 50 to 100%. For `O=C(NC[C@@H]1CCNC1)c1cc(-c2cnn(-c3ccccc3)c2)cs1` [Compound 16, 4-(1-phenyl-1H-pyrazol-4-yl)-N-{[(3R)-pyrrolidin-3-yl]methyl}thiophene-2-carboxamide], under setting [1], the activation at 0.8 µM lay in the range of 10 to 30%. Turning to `CC(C)N(C(=O)c1csc(-c2cnn(-c3cccnn3)c2)n1)C1CCNCC1` [Compound 323, N-(piperidin-4-yl)-N-(propan-2-yl)-2-[1-(pyridazin-3-yl)-1H-pyrazol-4-yl]-1,3-thiazole-4-carboxamide], the “increase in acidic vesicle formation” value is recorded as “only a slight increase”. Moreover, the activation at 0.8 µM under setting [1] was 30 to 50%. Turning to `CCCN(C(=O)c1csc(-c2cnn(-c3ccccc3F)c2)n1)[C@H]1CCNC1` [Compound 92, 2-[1-(2-fluorophenyl)-1H-pyrazol-4-yl]-N-propyl-N-[(3S)-pyrrolidin-3-yl]-1,3-thiazole-4-carboxamide], the activation at 0.8 µM runs as follows: under setting [1], 50 to 100%; under setting [2], 50 to 100%. On to `CCCN(C(=O)c1csc(-c2cnc(-c3ccccc3)o2)n1)C1CCNC1` (centres unmarked) [Compound 116, 2-(2-phenyl-1,3-oxazol-5-yl)-N-propyl-], for which the activation at 0.8 µM was 50 to 100% under setting [1] and 50 to 100% under setting [2]. `CCCN(C(=O)c1ccc(-c2cnn(-c3ccccc3)c2)[nH]1)[C@H]1CCNC1` [Compound 93, 5-(1-phenyl-1H-pyrazol-4-yl)-N-propyl-N-[(3S)-pyrrolidin-3-yl]-1H-pyrrole-2-carboxamide]: the activation at 0.8 µM under setting [1] was over 100% and the activation at 0.8 µM under setting [2] was 50 to 100%. The “Activity (percentage increase in acidic vesicle formation), Table 2b More preferred compounds” value (U2OS cells, concentration of 0.8 μM) was “++++ (a percentage increase in acidic vesicle of greater than 100% over the DMSO-treated control)”. As to `CCCN(C(=O)c1ccc(-c2cnn(-c3ccccc3)c2)o1)[C@H]1CCNC1` [Compound 98, 5-(1-phenyl-1H-pyrazol-4-yl)-N-propyl-N-[(3S)-pyrrolidin-3-yl]furan-2-carboxamide], the activation at 0.8 µM was in the range of 50 to 100% under setting [1] and 50 to 100% under setting [2].

As for `NC1CN(C(=O)c2csc(-c3cnn(-c4ccccc4)c3)n2)C1` [Compound 124, 1-[2-(1-phenyl-1H-pyrazol-4-yl)-1,3-thiazole-4-carbonyl]azetidin-3-amine], the activation at 0.8 µM fell in the range of 50 to 100% under setting [1] and 50 to 100% under setting [2]. Turning to `CCCN(C(=O)c1csc(-c2cnn(-c3ccccc3F)c2)n1)[C@@H]1CCNC1` [Compound 97, 2-[1-(2-fluorophenyl)-1H-pyrazol-4-yl]-N-propyl-N-[(3R)-pyrrolidin-3-yl]-1,3-thiazole-4-carboxamide], under setting [1], the activation at 0.8 µM lay within 30 to 50%. Same read-out and setting: next, `CCCN(C(=O)c1csc(-c2cnn(-c3ccc(C)cc3)c2)n1)[C@@H]1CCNC1` [Compound 65, 2-[1-(4-methylphenyl)-1H-pyrazol-4-yl]-N-propyl-N-[(3R)-pyrrolidin-3-yl]-1,3-thiazole-4-carboxamide]: 30 to 50%. Turning to `CC(C)N(C(=O)c1cc(-c2cnn(-c3ccccc3)c2)c[nH]1)[C@@H]1CCNC1` [Compound 334, 4-(1-phenyl-1H-pyrazol-4-yl)-N-(propan-2-yl)-N-[(3R)-pyrrolidin-3-yl]-1H-pyrrole-2-carboxamide], the “increase in acidic vesicle formation” value is on record as “only a slight increase”. Moreover, under setting [1], the activation at 0.8 µM was in the range of 30 to 50%. For the compound `CCCN(C(=O)c1csc(-c2cnn(-c3ccc(Cl)cc3)c2)n1)[C@H]1CCNC1` [Compound 40, 2-[1-(4-chlorophenyl)-1H-pyrazol-4-yl]-N-propyl-N-[(3S)-pyrrolidin-3-yl]-1,3-thiazole-4-carboxamide], under setting [1], the activation at 0.8 µM is 10 to 30%. Still for that read-out and setting: in the case of `O=C(c1csc(-c2cnn(-c3ccccc3)c2)n1)N1CCNCC1` [Compound 104, 1-[2-(1-phenyl-1H-pyrazol-4-yl)-1,3-thiazole-4-carbonyl]piperazine] it was 10 to 30%.
